Among the data in patent publication US6664250B2, “Lactam derivatives as antiarrhythmic agents” (Bristol-Myers Squibb Co., priority 1998, dated 2003) are melting point values, retold here.

Where a name gives a salt, the structure may show the parent alone.

By melting point is commonly meant the temperature of the solid-liquid transition. In the case of `OCC1c2ccc(OCc3ccccc3)cc2CCN1CCN1CCC(c2ccccc2)CC1` (stereo not shown) (as salt: hydrochloride), the melting point was 205 to 210 °C (dec.). With `COc1ccc2c(c1)CCN(CCN1CCC(c3ccccc3)CC1)C2=O` (as salt: hydrochloride) [Example 1, 3,4-Dihydro-6-methoxy-2-[2-(4-phenyl-1-piperidinyl)ethyl]-1(2H)-isoquinolinone, Monohydrochloride] the figure was 232 to 235 °C; with `COc1ccc2c(c1)CCC(C)(CN1CCC(c3ccccc3)CC1)NC2=O` (stereo not shown) [Example 5, 2,3,4,5-Tetrahydro-7-methoxy-3-methyl-3-[(4-phenyl-1-piperidinyl)methyl]-1H-2-benzazepin-1-one], 127 to 128 °C.

In the case of `COc1ccc2c(c1)CC(C)(CN1CCC(c3ccccc3)CC1)NC2=O` (stereo not shown) [Example 6], the melting point is 93 to 95 °C. To `CCOc1ccc2c(c1)C(=O)NC(CC(C)(C)C)CC2` (stereo not shown) [Example 21] belongs 159 to 160 °C; to `CCCOc1ccc2c(c1)C(=O)NC(CC(C)(C)C)CC2` (stereo not shown) [Example 22], 132 to 133 °C; to `CC(C)(C)CC1CCc2ccc(OCc3ccccc3)cc2C(=O)N1` (stereo not shown) [Example 23], 142 to 143 °C. With `CCCOc1ccc2c(c1)NC(=O)C(CC(C)(C)C)CC2` (stereo not shown) [Example 24] the figure was 117 to 119 °C. With `CC(C)(C)CC1Cc2ccc(OCc3ccccc3)cc2C(=O)N1` (stereo not shown) [Example 25] the figure was 139 to 140 °C; with `CC(C)(C)CC1CCc2ccc(OCc3ccccc3)cc2NC1=O` (stereo not shown) [Example 26], 150 to 151 °C; with `CC(C)COc1ccc2c(c1)C(=O)NC(CC(C)(C)C)CC2` (stereo not shown) [Example 27], 148 to 149 °C. On to `CCOc1ccc2c(c1)NC(=O)C(CC(C)(C)C)CC2` (stereo not shown) [Example 28], for which the melting point was in the range of 136 to 138 °C. To `CC(C)Oc1ccc2c(c1)C(=O)NC(CC(C)(C)C)CC2` (stereo not shown) [Example 29] belongs 113 to 114 °C; to `CCOc1ccc2c(c1)C(=O)NC(CC(C)(C)C)C2` (stereo not shown) [Example 30], 129 to 130 °C; to `CCCOc1ccc2c(c1)C(=O)NC(CC(C)(C)C)C2` (stereo not shown) [Example 31], 88 to 90 °C.

For the compound `CC(C)COc1ccc2c(c1)C(=O)NC(CC(C)(C)C)C2` (stereo not shown) [Example 32], the melting point was 142 to 143 °C. In the case of `CC(C)COc1ccc2c(c1)NC(=O)C(CC(C)(C)C)CC2` (stereo not shown) [Example 33], the melting point was in the range of 139 to 140 °C. To `CC(C)Oc1ccc2c(c1)NC(=O)C(CC(C)(C)C)CC2` (stereo not shown) [Example 34] belongs 132 to 134 °C. `CCCOc1ccc2c(c1)NC(=O)C(CC(C)(C)C)C2` (stereo not shown) [Example 36] registered a melting point of 109 to 110 °C. `CC(C)Oc1ccc2c(c1)C(=O)NC(CC(C)(C)C)C2` (stereo not shown) [Example 37] yielded a melting point of 135 to 136 °C. With `COc1ccc2c(c1)NC(=O)C(CC(C)(C)C)C2` (stereo not shown) [Example 37] the figure was 118 to 119 °C; with `COc1ccc2c(c1)C(=O)NC(CC(C)(C)C)C2` (stereo not shown) [Example 38], 113 to 114 °C.
